Test results: patent US20190365788A1, “CYCLIC PHOSPHATE SUBSTITUTED NUCLEOSIDE DERIVATIVES FOR THE TREATMENT OF LIVER DISEASES” (priority 2016, published 2019)
Where two headings read alike, the source gives them in different places.

How the values were obtained:
HuH-1 cells = assay: In vitro inhibition of HuH-1 cells (MTT proliferation assay); assay type: cell-based; conditions: 72 h incubation, absorbance 570 nm, read-out: HuH-1: Relative IC50
Experimental: (§1) The compounds of the invention were tested in cell based in vitro assays comprising HuH-1 cells and HepG2 cells, as in vitro models for potential hepatocellular carcinoma activity.
(§2) HuH-1 cells were purchased from JCRB, HepG2 cells from ATCC, and both tested with the following method:
(§3) Cells are suspended at a specific density in a specific culture medium. Then, 100 μl of cell suspension are plated per well in 96-well plates.
(§4) Compounds or negative controls (DMSO) are added to the cells (100 μl of a compound solution in its specific medium with a final concentration of 0.15% DMSO). Each compound concentration is tested in duplicate (6 concentrations per compound). Cells are incubated at 37° C. for 72 h without treating again.
(§5) SDS is added to control wells (final concentration of 1%) and kept for 15 min at 37° C. SDS 1% represents the positive control of proliferation inhibition. Cell supernatant is removed and 100 μl of a MTT (3-[4.5-dimethylthiazol-2-yl]-2.5-diphenyltetrazolium bromide) solution in fresh medium are added per well (MTT final concentration of 0.5 mg/ml) and incubated for 4 h at 37° C. MTT reaction is stopped and homogenized by adding 100 μl/well of SDS 10%, 0.01M HCl and incubated for 2 h at 37° C. Absorbance is measured at 570 nm.

HepG2 cells = assay: In vitro inhibition of HepG2 cells (MTT proliferation assay); assay type: cell-based; conditions: 72 h incubation, absorbance 570 nm, read-out: HepG2: Relative IC50
Experimental: as §1, §2, §3, §4, §5

Human Hepatocytes = assay: In vitro conversion of prodrug to nucleoside triphosphate (NTP) in human hepatocytes; assay type: in vitro ADME; conditions: 1 hour at 10 μM prodrug, intracellular NTP
Experimental: The degree of conversion of a prodrug compound of the present invention to its corresponding nucleoside triphosphate (NTP) can be measured in vitro using the procedure described below.
A 2 mM stock solution of the prodrug test compound is prepared in 5% DMSO/95% MeOH to provide a final sample concentration of […]. A 5 μL aliquot is removed from this stock solution and added to 1 mL of either a rat or human cryopreserved hepatocyte sample to provide a control sample at concentration of 1 million cells/mL. This sample is assayed in triplicate and used as a test sample.
Human and rat hepatocytes are removed from liquid nitrogen storage and thawed by submerging the hepatocyte tube into a pre-heated 37° C. waterbath and gently shaking the tube back & forth until thawed. The thawed hepatocytes are then gently poured into a container of Hepatocyte Basal Medium (50 mL, pre-warmed to 37° C.) and washed. The hepatocyte tube is then rinsed out with pre-warmed Hepatocyte Basal Medium and the washed hepatocytes and rinse are combined and centrifuged at 500 rpm for 4 minutes at room temperature. The supernatant is then discarded and the resulting hepatocyte pellet is resuspended with Hepatocyte Basal Medium (pre-warmed to 37° C.) and the final hepatocyte concentration is adjusted to 1 million cells/mL to provide the final hepatocyte suspension.
A 1 mL aliquot is removed from the 1 million cells/mL final hepatocyte suspension, analyzed in triplicate and placed into 20 mL scintillation vial without a cap. 2 mM of the prodrug test sample is then added into the hepatocyte suspension to provide a 10 μM final concentration in the 1 mL hepatocyte sample. […]
The incubated hepatocyte suspension samples are transferred to a microcentrifuge tube using a transfer pipette and centrifuged at 500 rpm for 4 minutes at room temperature. […] The resulting extract solution is then stored in a refrigerator at 4° C. until ready for use, at which point the sample is first subjected to vortexing/sonication to ensure that all hepatocyte cells have burst. […]

SMILES	IC50 (HuH-1 cells; Homo sapiens)	IC50 (HepG2 cells; Homo sapiens)	Human Hepatocyte 1 hour at 10 μM, NTP (Human Hepatocytes)	other results
CC(C)OC(=O)[C@H](C)CCOP1(=O)OC[C@H]2S[C@@H](n3ccc(N)nc3=O)[C@@H](F)[C@@H]2O1 (single isomer, unassigned) [Compound 2 Diastereoisomer 1]	< 500 nM	–	–	–
COc1nc(N)nc2c1ncn2[C@@H]1O[C@@H]2COP(=O)(OCC[C@@H](C)C(=O)OC(C)C)O[C@H]2[C@@H]1O (mixture of isomers) [Mixture 5A/5B, Isopropyl (R)-4-(((2S,4aR,6R,7S,7aS)-6-(2-amino-6-methoxy-9H-purin-9-yl)-7-hydroxy-2-oxidotetrahydro-4H-furo[3,2-d][1,3,2]dioxaphosphinin-2-yl)oxy)-2-methylbutanoate and Isopropyl (R)-4-(((2R,4aR,6R,7S,7aS)-6-(2-amino-6-methoxy-9H-purin-9-yl)-7-hydroxy-2-oxidotetrahydro-4H-furo[3,2-d][1,3,2]dioxaphosphinin-2-yl)oxy)-2-methylbutanoate]	≥ 5000 nM	≥ 5000 nM	–	–
CCOC(=O)[C@H](C)CCOP1(=O)OC[C@H]2S[C@@H](n3ccc(N)nc3=O)[C@@H](F)[C@@H]2O1 (single isomer, unassigned) [Compound 1 Diastereoisomer 1]	< 500 nM	–	–	–
CC(C)OC(=O)[C@H](C)CCOP1(=O)OC[C@H]2O[C@@H](n3ccc(NC(=O)c4ccccc4)nc3=O)C(F)(F)[C@@H]2O1 (stereo partly drawn) [Compound 10, Isopropyl (2R)-4-(((4aR,6R,7aR)-6-(4-benzamido-2-oxopyrimidin-1(2H)-yl)-7,7-difluoro-2-oxidotetrahydro-4H-furo[3,2-d][1,3,2]dioxaphosphinin-2-yl)oxy)-2-methylbutanoate]	–	–	C (C=≥1 μM)	–
CCOC(=O)[C@H](C)CCOP1(=O)OC[C@H]2S[C@@H](n3ccc(N)nc3=O)[C@@H](F)[C@@H]2O1 (single isomer, unassigned) [Compound 1 Diastereoisomer 2]	–	–	A (A=<0.5 μM)	–
CC(C)OC(=O)C(C)CCOP1(=O)OC[C@H]2O[C@@H](n3cc(C(F)(F)F)c(=O)[nH]c3=O)C[C@@H]2O1 (mixture of isomers) [Mixture 6A/6B, Isopropyl 4-(((2S,4aR,6R,7aS)-6-(2,4-dioxo-5-(trifluoromethyl)-3,4-dihydropyrimidin-1 (2H)-yl)-2-oxidotetrahydro-4H-furo[3,2-d][1,3,2]dioxaphosphinin-2-yl)oxy)-2-methylbutanoate and Isopropyl 4-(((2R,4aR,6R,7aS)-6-(2,4-dioxo-5-(trifluoromethyl)-3,4-dihydropyrimidin-1 (2H)-yl)-2-oxidotetrahydro-4H-furo[3,2-d][1,3,2]dioxaphosphinin-2-yl)oxy)-2-methylbutanoate]	≥ 5000 nM	≥ 5000 nM	–	–
CC(C)OC(=O)[C@@H](C)CCO[P@@]1(=O)OC[C@H]2O[C@@H](n3cnc4c(N)nc(Cl)nc43)C[C@@H]2O1.CC(C)OC(=O)[C@@H](C)CCO[P@]1(=O)OC[C@H]2O[C@@H](n3cnc4c(N)nc(Cl)nc43)C[C@@H]2O1 (single isomer, unassigned; diastereoisomer 1) [Compound 3 Diastereoisomer 1]	–	–	–	IC50 (HuH-1 cells): 500 to 5000 nM; IC50 (HepG2 cells): < 500 nM
CC(C)OC(=O)[C@H](C)CCOP1(=O)OC[C@H]2S[C@@H](n3ccc(N)nc3=O)[C@@H](F)[C@@H]2O1 (single isomer, unassigned) [Compound 2 Diastereoisomer 2]	–	500 to 5000 nM	A (A=<0.5 μM)	IC50 (HuH-1 cells): < 500 nM
